From patent US8153431B2, “Compositions and methods for making mutations in cell lines and animals” (ABT Holding Company, priority 2001, dated 2012) come the findings set out here.

In one assay the test system is single copy HPRT gene. The assay is described as follows: Mutation rate by knockout of single copy HPRT gene (6-thioguanine selection) in Jurkat cells. Format: cell-based, human. The source says: The ability to identify all genetic mutations that can create a phenotype requires that large numbers of mutations be created in as few cells as possible, and the high efficiency of ENU chemical mutagenesis is suited to this task. We set out to determine the ENU treatment needed to create 50-100 cell libraries in which all genes are mutated at least once (defined as a 1× knockout library) in Jurkat cells. To characterize the mutagenesis we measured both cell survival and the mutation rate in characterizing the optimal ENU treatment (Table I). Survival was determined by limiting dilution, and the mutation rate was estimated in the population of surviving clones based on the frequency of knocking out the single copy HPRT gene (assayed by the survival of such HPRT^− cells upon culture in the presence of 6-thioguanine). […]
• Jurkat cells were treated with 10 uM O-6-BG (Sigma) at 5×10^5 cells/ml for 16 hours at 37° C. in a humidified incubator with 5% CO2. […] Viability is determined by the lower density seeding based on number of wells containing growing colonies. […] Number of wells containing growing colonies in the presence of 6-TG was scored 7-10 days later. Mutation frequency is calculated as # of 6-TG resistant colony divided by # of viable cells seeded.

Another assay concerns Jurkat cells. The assay is described as follows: Cell survival after ENU treatment (limiting dilution). Format: cell-based, human. The following applies: 2 hours, with 10 uM O-6-BG. The source says: The ability to identify all genetic mutations that can create a phenotype requires that large numbers of mutations be created in as few cells as possible, and the high efficiency of ENU chemical mutagenesis is suited to this task. We set out to determine the ENU treatment needed to create 50-100 cell libraries in which all genes are mutated at least once (defined as a 1× knockout library) in Jurkat cells. To characterize the mutagenesis we measured both cell survival and the mutation rate in characterizing the optimal ENU treatment (Table I). Survival was determined by limiting dilution, and the mutation rate was estimated in the population of surviving clones based on the frequency of knocking out the single copy HPRT gene (assayed by the survival of such HPRT^− cells upon culture in the presence of 6-thioguanine). As shown in the table below, at an ENU dose of 0.2 mg/ml the mutation rate is 0.02 HPRT^− genes/cell and the 1× library size is therefore ˜50 cells. Creation of libraries of these densely mutagenized cells provides a genetically sensitized background in which small increments of further mutagenesis can create phenotypes by knocking out the sole remaining wild type alleles of ENU-mutated genes.
• Jurkat cells were treated with 10 uM O-6-BG (Sigma) at 5×10^5 cells/ml for 16 hours at 37° C. in a humidified incubator with 5% CO2. The pretreated cells were then incubated with desired concentration of ENU (Sigma) in the presence of O-6-BG for 2 hours at 37° C. with constant shaking. At the end of incubation cells were washed with 10-volume 1×PBS three times and resuspended in complete media with 10 uM O-6-BG. 24 hours later O-6-BG was washed off, cells were resuspended in complete media and seeded onto 96-well plate at 20 cells per well or 400-2000 cells per well. Cells were then cultured for 10 days. Viability is determined by the lower density seeding based on number of wells containing growing colonies. To determine mutation frequency, cells seeded at the higher density were used to select for Hprt-loss of function mutants in the presence of 40 uM 6-TG (Sigma). Number of wells containing growing colonies in the presence of 6-TG was scored 7-10 days later. Mutation frequency is calculated as # of 6-TG resistant colony divided by # of viable cells seeded.

In the assay with single copy HPRT gene (ENU dose of 0.2 mg/ml, Jurkat), `CCN(N=O)C(N)=O` [ENU, N-ethyl-N-nitrosourea] yielded a mutation rate of 0.02 HPRT^− genes/cell. The “genes in each cell with knockout in one copy” value in the assay with single copy HPRT gene (Jurkat clones after 0.2 mg/ml ENU mutagenesis) is on record as 1-3%. The “% survival” value with Jurkat cells (ENU 0.1 mg/ml) worked out at 1.83%; with Jurkat cells (ENU 0.125 mg/ml) it was 0.93%; with Jurkat cells (ENU 0.15 mg/ml) it was 1.08%; with Jurkat cells (ENU 0.175 mg/ml), 0.88%; in the assay on Jurkat cells (ENU 0.2 mg/ml) it was 0.29%; with Jurkat cells (ENU 0.25 mg/ml), 0.07%.
